From ChEMBL document CHEMBL1201862, “PubChem BioAssay data set” (2004)
Active and inactive are the calls of the source.

Columns and labels:
[1] = cytotoxicity toward HT-29 cells – cell-based, CellTiter-Glo luminescence, IC50, dose response (AID 1117330); format: functional
[2] = HCT116 cell viability decrease, GSK3B pretreatment – CellTiter-Glo, IC50, dose response (AID 1117339); format: functional; details: HCT-116
[3] = CellTiter-Glo luminescence survival assay, SW480 colon tumor line, concentration-response curve, half-maximal inhibitory concentration (AID 1117338); format: functional
[4] = RKO cell viability reduction, dose response, CellTiter-Glo luminescence (AID 1117322); format: functional
[5] = rise of 2N DNA cells, HeLa – IC50, dose response (AID 1117349); format: functional, cell-based
[6] = rise of 4N DNA cells, HeLa – IC50, dose response (AID 1117351); format: functional, cell-based
[7] = SNU-C1 cell viability reduction, dose response, CellTiter-Glo luminescence (AID 1117323); format: functional, cell-based
[8] = cytotoxicity toward HCT116 cells – cell-based, CellTiter-Glo luminescence, IC50, dose response (AID 1117332); format: functional; details: HCT-116
[9] = cytotoxicity toward Colo320 cells – cell-based, CellTiter-Glo luminescence, IC50, dose response (AID 1117334); format: functional; details: COLO 320
[10] = Reduced DLD-1 viability, concentration-response, CellTiter-Glo luminescence (AID 1117352); format: functional
[11] = target: Large T antigen (Simian virus 40, UniProt P03070); format: functional, Betapolyomavirus macacae;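 further: Confirmatory-stage PubChem screen for compounds that inhibit SV40 T antigen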
Chain of Large T antigen (P03070 whole entry): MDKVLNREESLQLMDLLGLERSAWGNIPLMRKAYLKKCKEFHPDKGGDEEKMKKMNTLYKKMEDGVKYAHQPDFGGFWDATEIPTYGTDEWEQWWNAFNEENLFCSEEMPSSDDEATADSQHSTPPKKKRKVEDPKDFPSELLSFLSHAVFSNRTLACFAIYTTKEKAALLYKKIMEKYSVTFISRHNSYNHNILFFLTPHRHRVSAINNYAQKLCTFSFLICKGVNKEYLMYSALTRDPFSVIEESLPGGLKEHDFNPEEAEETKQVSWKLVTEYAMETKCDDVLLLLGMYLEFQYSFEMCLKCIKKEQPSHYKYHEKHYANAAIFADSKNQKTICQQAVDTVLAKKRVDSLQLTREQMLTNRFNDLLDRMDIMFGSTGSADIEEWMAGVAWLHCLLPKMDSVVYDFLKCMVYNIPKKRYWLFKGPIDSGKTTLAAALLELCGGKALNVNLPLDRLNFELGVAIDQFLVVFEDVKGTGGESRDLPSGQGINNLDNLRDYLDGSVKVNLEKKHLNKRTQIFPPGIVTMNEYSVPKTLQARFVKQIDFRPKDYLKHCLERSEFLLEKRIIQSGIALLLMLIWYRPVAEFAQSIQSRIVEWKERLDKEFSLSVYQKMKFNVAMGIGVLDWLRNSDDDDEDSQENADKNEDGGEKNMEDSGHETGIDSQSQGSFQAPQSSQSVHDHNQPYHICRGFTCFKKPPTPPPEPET

[12] = target: Caspase-6 (Homo sapiens, UniProt P55212); experiment: inhibition of CASP6 peptide cleavage – biochemical, VEID-R110 fluorescence, cherry-pick, dose response (AID 720632)
Chain of Caspase-6 (P55212 24-179 limits assumed): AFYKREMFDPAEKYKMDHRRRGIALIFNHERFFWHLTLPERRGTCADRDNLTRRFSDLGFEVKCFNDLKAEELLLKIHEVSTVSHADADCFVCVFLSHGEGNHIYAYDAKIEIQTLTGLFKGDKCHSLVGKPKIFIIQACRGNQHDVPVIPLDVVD
Chain of Caspase-6 (P55212 194-293 limits assumed): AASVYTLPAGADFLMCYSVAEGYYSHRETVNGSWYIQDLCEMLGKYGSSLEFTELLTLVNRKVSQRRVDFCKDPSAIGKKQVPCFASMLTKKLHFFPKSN

[13] = viability loss in A549 lung cells – cell-based, 24 h, CellTiter-Glo luminescence, cherry-picks, cytotoxicity control, dose response (AID 1053115); format: functional; details: A549, 24 h
[14] = growth inhibition of MALME3 cells – cell-based, CellTiter-Glo luminescence, dry powder, set 5, orthogonal assay for MITF inhibitor project, dose response (AID 651584); format: functional; details: MALME-3
[15] = MITF Orthogonal Assay: SK-MEL-5 CTG Assay Measured in Cell-Based System Using Plate Reader - 2084-02_Inhibitor_Dose_DryPowder_Activity_Set5.; format: functional
[16] = MITF Orthogonal Assay: MALME3 CTG Assay Measured in Cell-Based System Using Plate Reader - 2084-04_Inhibitor_Dose_DryPowder_Activity_Set6.; format: functional; details: MALME-3
[17] = cytotoxicity in melanoma parental cells – cell-based, CellTiter-Glo, dry powder, set 6, MITF inhibitor project, dose response (AID 624429); format: functional; details: SK-MEL-5
[18] = MITF Measured in Cell-Based System Using Plate Reader - 2084-01_Inhibitor_Dose_DryPowder_Activity_Set6.; format: functional
[19] = growth inhibition of SK-MEL-5 melanoma cells – cell-based, CellTiter-Glo luminescence, dry powder, set 8, orthogonal assay for MITF inhibitor project, dose response (AID 651586); format: functional
[20] = cytotoxicity in MITF-independent A375 cells – cell-based, CellTiter-Glo luminescence, dry powder, set 4, counter-screen for MITF inhibitor project, dose response (AID 624364); format: functional; details: A-375;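 further: A375 melanoma cells are MITF independent so this is a counter screen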
[21] = MITF Measured in Cell-Based System Using Plate Reader - 2084-01_Inhibitor_Dose_DryPowder_Activity_Set7.; format: functional
[22] = melanocyte viability loss, MITF-dependent cells, cell-based, plate reader, dry powder, cytotoxicity control, dose response (AID 651920); format: functional
[23] = viability loss in MITF-independent A375 cells – cell-based, CellTiter-Glo luminescence, dry powder, set 7, counter-screen for MITF inhibitor project, dose response (AID 624490); format: functional; details: A-375
[24] = inhibitors of TRPM1-promoter reporter in SK-MEL-5 – cell-based, luciferase, dry powder, set 9, MITF inhibitor project, dose response (AID 651588); format: functional
[25] = ATP-based viability loss in HeLa cells – cell-based, CellTiter-Glo luminescence, dry powder, set 2, cytotoxicity control, dose response (AID 720593); format: functional
[26] = dual-tagged ARNT PAS-B bead signal quenchers – biochemical, dry powder, artefact control for ARNT/TACC3 disruptor project, dose response (AID 720564)
[27] = ATP-based viability loss in HEK293T cells – cell-based, CellTiter-Glo luminescence, dry powder, set 2, cytotoxicity control, dose response (AID 720595); format: functional; details: HEK293
[28] = viability loss in A549 lung cancer cells – cell-based, cherry-picks, […], cytotoxicity control, dose response (AID 1053119); format: functional
[29] = viability loss in HEK293 kidney cells – cell-based, cherry-picks, set 5, cytotoxicity control, dose response (AID 1053117); format: functional
[30] = blockers of FN fibrillogenesis by fibroblasts – AH1F cells, Alexa488-FN fluorescence, cherry-picks, dose response (AID 1035475); format: functional, cell-based
[31] = IC50 of Artemis nuclease activity blockers – biochemical, fluorescence intensity, dose response (AID 720701); format: functional;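 further: Artemis endonuclease enzyme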
[32] = tested on: INS1; experiment: INS-1E survival protection against cytokine death – cell-based, luminescence, retest, dose response (AID 449756); format: functional; details: Rattus norvegicus;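 further: cell death triggered by IL-1 beta plus TNF-alpha plus IFN-gamma mixture; protective hits raise ATP signal compared with cytokine alone wells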

In the case of `O=C(O)CN(CCN(CC(=O)O)CC(=O)O)CCN(CC(=O)O)CC(=O)O` [PENTETIC ACID], the IC50 [1] is reported as > 20 µM (inactive), the IC50 [2] is reported as 0.896 µM (active) and the IC50 [3] is reported as 3.14 µM (active). For the same compound, the IC50 [4] was 2.96 µM (active), the IC50 [5] was > 10 µM (inactive) and the IC50 [6] was > 10 µM (inactive). For the same compound, the IC50 [7] was > 20 µM (inactive), the IC50 [8] was > 6.67 µM (inactive) and the IC50 [9] was > 20 µM (inactive). For the same compound, the IC50 [10] was > 20 µM (inactive).

With `COc1ccc(Br)cc1C1CC(=O)N2CN(C)CSC2=C1C#N` (configuration not stated) the IC50 [11] was 76.9 µM (active) and the AC50 [12] was 39.2 µM (active).

For `COc1ccccc1CN1CC[C@@H]2[C@H](CO)Nc3ccc(C#Cc4ccccc4)cc3[C@@H]21`, the AC50 [13] was > 60 µM (inactive).

With `O=C1C=C(NS(=O)(=O)c2ccccc2)C(=O)c2ccccc21` the AC50 [14] was 21.3 µM (active), the AC50 [15] was 10.3 µM (active) and the AC50 [16] was 21.3 µM (active). For the same compound, the AC50 [17] was 10.5 µM (active), the AC50 [18] was 3.04 µM (active) and the AC50 [19] was 18.4 µM (active). For the same compound, the AC50 [20] was > 70 µM (inactive), the AC50 [21] was 4.57 µM (active) and the AC50 [22] was 59.4 µM (active). For the same compound, the AC50 [23] was > 70 µM (inactive) and the AC50 [24] was 13 µM (active).

With `O=C(Nc1nnc(-c2ccc(F)cc2)o1)c1ccc(S(=O)(=O)N2CCCCC2)cc1` the AC50 [25] was 46.1 µM (active), the AC50 [26] was 72.4 µM (active) and the AC50 [27] was 2.51 µM (active).

With `N#Cc1ccc(-c2ccc3c(c2)[C@H]2[C@H](CCN2S(=O)(=O)c2cccc(F)c2)[C@H](CO)N3)cc1` the AC50 [28] was 33.6 µM (active), the AC50 [29] was 32.6 µM (active) and the AC50 [30] was 5.71 µM (active).

In the case of `c1ccc(-c2nnc3sc(-c4csc5c4CCCC5)nn23)cc1`, the IC50 [31] is reported as > 20 µM (inactive) and the AC50 [32] is reported as 64.1 µM (active).
